Results on three compounds are retold here after patent US7196198B2, “Benzoic acid derivatives, processes for the preparation thereof and pharmaceutical agents comprising the same as active ingredient” (Ono Pharmaceutical Co., Ltd., priority 2000, dated 2007).

Broadly, the Ki is a measure of affinity in units of concentration, obtained from inhibition or displacement. What is called IC50 is the midpoint of a concentration-inhibition curve.

Test [1] has as its target T1, EP4 (Mus musculus, UniProt P32240).
T1 construct: expressed in transfected cells; host or cells: CHO cells (membrane fraction)
The test can be described thus: Binding assay using cell expressing the prostanoid receptor subtypes ([3H]-PGE2 competition, CHO membrane fraction). To be noted: membrane fraction of CHO cell expressing mouse EP4, Ki=IC50/(1+([C]/Kd)). How it is done: (i) Binding Assay Using Cell Expressing The Prostanoid Receptor Subtypes
The preparation of membrane fraction was carried out according to the method of Sugimoto et al [J. Biol. Chem. 267, 6463–6466 (1992)], using CHO cell expressing prostanoid receptor subtype (mouse EP1, EP2, EP3, EP4 and human IP).
The standard assay mixture containing membrane fraction (0.5 mg/mL), [^3H]-PGE2 in a final volume of 200 μl was incubated for 1 hour at room temperature. The reaction was terminated by addition of 3 mL of ice-cold buffer. The mixture was rapidly filtered through a glass filter (GF/B) under reduced pressure. The radioactivity associated with the filter was measured by liquid scintillation counter.
Kd and Bmax values were determined from Scatchard plots [Ann. N.Y. Acad. Sci. 51, 660(1949)]. Non-specific binding was calculated as the amount bound in the presence of an excess (2.5 μM) of unlabeled PGE2. In the experiment for competition of specific [^3H]-PGE2 binding by the compounds of the present invention, [^3H]-PGE2 was added at a concentration of […] and the compound of the present invention was added at various concentrations. The following buffer was used in all reactions. • Buffer: 10 mM potassium phosphate (pH 6.0), 1 mM EDTA, 10 mM MgCl2, 0.1 M NaCl. • The dissociation constant (Ki) (μM) of each compound was calculated by the following equation. Ki=IC50/(1+([C]/Kd))

Test [2] addresses T1, EP4. Put plainly: EP4 antagonizing activity assay using the cell expressing the prostanoid receptor subtypes (cAMP production in CHO cells). The class given is cell-based. The conditions noted are these: inhibition of cAMP production with 100 nM PGE2 as agonist; CHO cell expressing receptor subtype. How it is done: (ii) EP4 Antagonizing Activity Assay Using the Cell Expressing the Prostanoid Receptor Subtypes
The preparation of CHO cell expressing prostanoid receptor subtype was carried out according to the method of Nishigaki et al [FEBS lett., 364, 339–341(1995)]. The cells were cultured in 24-well microplates (10^5 cells/well) for two days before experiments. After washing each well with 500 μL of MEM (minimum essential medium), thereto was added 450 μL of assay medium (MEM containing 1 mmol/L IBMX, 1% BSA), and the mixture was incubated for 10 minutes at 37° C. Then PGE2 alone or a combination with a test compound (50 μL) were added, and the mixture was incubated for 10 minutes at 37° C. And reaction was terminated by addition of ice-cold TCA (10% W/V, 500 μL). This reaction mixture was freezed once (−80° C.) and thawed, and cells were harvested using a scraper. After centrifugation (13,000 r.p.m., for 3 minutes), cAMP content was measured using cAMP assay kit. That is, the supernatant (125 μL) was diluted with 500 μL of [^125I]-cAMP assay kit buffer (Amersham), and mixed with 0.5 mol/L tri-n-octylamine/chloroform solution (1 mL) was mixed. After removal of TCA from chloroform layer, cAMP content in the aqueous layer was quantified according to the method of kit manuals. […]
(In general: cAMP levels reflect the balance of adenylyl cyclase and phosphodiesterase activity.)

Counter-ions that a name gives are not always drawn.

T1 sequence (P32240 whole entry): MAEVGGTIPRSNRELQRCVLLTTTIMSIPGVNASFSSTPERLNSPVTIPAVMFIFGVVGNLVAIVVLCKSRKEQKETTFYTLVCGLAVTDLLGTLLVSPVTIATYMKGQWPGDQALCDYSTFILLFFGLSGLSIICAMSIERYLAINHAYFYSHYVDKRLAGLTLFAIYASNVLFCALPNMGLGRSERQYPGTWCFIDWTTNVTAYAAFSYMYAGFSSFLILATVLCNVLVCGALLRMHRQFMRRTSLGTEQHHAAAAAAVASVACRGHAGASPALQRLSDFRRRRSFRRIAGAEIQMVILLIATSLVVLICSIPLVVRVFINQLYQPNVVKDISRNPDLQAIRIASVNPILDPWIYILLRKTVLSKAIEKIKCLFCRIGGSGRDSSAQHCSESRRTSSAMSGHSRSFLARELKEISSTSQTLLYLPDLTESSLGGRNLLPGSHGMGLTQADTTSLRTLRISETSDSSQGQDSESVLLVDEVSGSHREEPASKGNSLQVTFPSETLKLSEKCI

Compound `CC(C(=O)Nc1ccccc1Cc1ccccc1C(=O)O)c1cccc2ccccc12` (stereo not shown) [Example 2(1), 2-[2-[2-(1-naphthyl)propanoylamino]phenylmethyl]benzoic acid] returned a Ki at EP4 [1] of 2.7 nM. Also, the IC50 at EP4 [2] worked out at 10 nM.
As to `CC(C(=O)Nc1ccncc1Cc1ccccc1C(=O)O)c1cccc2ccccc12` (stereo not shown) [Example 2(15), 2-[4-[2-(1-naphthyl)propanoylamino]pyridin-3-ylmethyl]benzoic acid monohydrochloride], the Ki on EP4 [1] came to 6.5 nM.
For the compound `CC(C(=O)Nc1ccccc1Cc1ccccc1C(=O)O)c1ccc(OCc2ccccc2)cc1` (stereo not shown) [Example 4(1), 2-[2-[2-(4-benzyloxyphenyl)propanoylamino]phenylmethyl]benzoic acid], the Ki at EP4 [1] turned out to be 10.5 nM.
